Laboratory results: patent US9616006B2, “Methods and compositions for treating dermatological diseases and conditions” (priority 2007, dated 2017)

How the values were obtained:
PGE2 [1] = assay: TPA-induced PGE2 production in keratinocytes (ELISA); format: cell-based, human; settings: 100 uM
IL-6 [2] = assay: TPA-induced IL-6 production in keratinocytes (ELISA); format: cell-based, human; settings: 100 uM
IL-8 [3] = assay: TPA-induced IL-8 production in keratinocytes (ELISA); format: cell-based, human; settings: 100 uM
TNF-α [4] = assay: TPA-induced TNF-α production in keratinocytes (ELISA); format: cell-based, human
Method: (§1) In one study, various concentrations of DHE were added to culture medium and these media were placed on human fibroblast cell cultures (results shown in FIG. 1). Cells were either not induced or induced with UVB radiation to stimulate cytokine/PGE-2 production. At 24 hours after treatment, the cell culture medium was removed and assayed by ELISA methods for the expression of PGE-2, various cytokines and chemokines.
(§2) When similar experiments were carried out with human keratinocytes, DHE was again found to markedly suppress the UVR induction of PGE-2, with a concentration of 50 uM inhibiting the production of PGE-2 by over 60% (results shown in FIG. 2). […] Further, since PGE-2 is known to be a principal factor in the development of actinic keratosis and skin cancer, DHE can also be used in treating these conditions.
Inflammatory mediators produced in the skin contribute to the development and propagation of such diseases as rosacea, psoriasis and atopic dermatitis. While many inflammatory mediators are involved in these diseases, TNF-α is known to be a major cytokine involved in psoriasis. For atopic dermatitis, TNF-α, IL-8, and MCP-1 are important mediators of inflammation in these diseases. DHE is effective in suppressing the TPA-induced (TPA is tetradecanolyl phorbol ester) production of TNF-α by approximately 50% at a 100 micromolar concentration (results shown in FIG. 3).
(§3) DHE and IE both have inhibitory effects on production of the inflammatory mediators in keratinocytes.

PGE2 [5] = assay: UV-induced PGE2 production in keratinocytes (ELISA); format: cell-based, human
Method: as §1, §2, §3

IL-6 [6] = assay: UV-induced IL-6 production in keratinocytes (ELISA); format: cell-based, human; settings: 100 uM
Method: as §1, §2, §3

IL-8 [7] = assay: UV-induced IL-8 production in keratinocytes (ELISA); format: cell-based, human; settings: 100 uM
Method: as §1, §2, §3

TNF-α [8] = assay: UV-induced TNF-α production in keratinocytes (ELISA); format: cell-based, human; settings: 100 uM
Method: as §1, §2, §3

PGE-2 [9] = assay: IL-1-induced PGE-2 production in fibroblasts (ELISA); format: cell-based, human; settings: Fibroblasts (IL-1); 100 uM
Method: as §1, with “Cells were either not induced or induced with UVB radiation to stimulate cytokine/PGE-2 production.” left out
(§4) DHE and IE both have inhibitory effects on the production of the inflammatory mediators in fibroblasts.

IL-6 [10] = assay: IL-1-induced IL-6 production in fibroblasts (ELISA); format: cell-based, human; settings: Fibroblasts (IL-1); 100 uM
Method: as §1, with “Cells were either not induced or induced with UVB radiation to stimulate cytokine/PGE-2 production.” left out
as §4

IL-8 [11] = assay: IL-1-induced IL-8 production in fibroblasts (ELISA); format: cell-based, human; settings: Fibroblasts (IL-1); 100 uM
PGE-2 [12] = assay: UV-induced PGE-2 production in fibroblasts (ELISA); format: cell-based, human
Method: as §1
As is shown in FIG. 1, UV radiation (UVR) treatment of fibroblasts results in a 6 fold increase in PGE-2.
as §4

IL-6 [13] = assay: UV-induced IL-6 production in fibroblasts (ELISA); format: cell-based, human; settings: 100 uM
Method: as §1, §4

IL-8 [14] = assay: UV-induced IL-8 production in fibroblasts (ELISA); format: cell-based, human; settings: 100 uM
Method: as §1, §4

MCP-1 [15] = assay: LPS-induced MCP-1 production in monocytes; format: cell-based
Description: (§5) DHE and IE both have inhibitory effects on the production of the inflammatory mediators in monocytes.

IL-12 [16] = assay: LPS-induced IL-12 production in monocytes; format: cell-based; settings: 100 uM
Description: as §5

TNF-α [17] = assay: LPS-induced TNF-α production in monocytes; format: cell-based
Description: as §5

IL-8 [18] = assay: LPS-induced IL-8 production in monocytes; format: cell-based
Description: as §5

MCP-1 [19] = assay: TNF-α-induced MCP-1 production in monocytes; format: cell-based; settings: 100 uM
Description: as §5

IL-8 [20] = assay: TNF-α-induced IL-8 production in monocytes; format: cell-based; settings: 100 uM
Description: as §5

IL-12 [21] = assay: TNF-α-induced IL-12 production in monocytes; format: cell-based; settings: 100 uM
Description: as §5

collagen 1 mRNA = assay: Collagen mRNA in fibroblasts by RT-PCR; format: cell-based, human; settings: fibroblast cell cultures treated 72 hours
Description: (§6) The presently claimed and disclosed inventive concept(s) further contemplates use of various DHE, IE and EV compositions and salts, esters, ethers, and derivatives thereof to mitigate the effects of aging on the skin. For all aging studies, normal human fibroblast cell cultures were used. These cells normally produce collagen, elastin and hyaluronic acid. As the skin ages, the fibroblasts in the dermis lose their ability to produce these three key components of skin, and the skin consequently loses elasticity, thickness and smooth texture. In addition, as fibroblasts age, they increase the expression of certain enzymes that destroy collagen and elastin. There are about 13 of these enzymes, collectively referred to as MMPs (matrix metalloproteinases). One of the principal MMPs, MMP-1, is responsible for collagen degradation. […] Fibroblast cell cultures were treated with either IE, DHE or EV for 72 hours at which time the amount of collagen mRNA present in the cells was determined.

elastin mRNA = assay: Elastin mRNA in human dermal fibroblasts by RT-PCR; format: cell-based; settings: 72 hours
Description: as §6, with “In addition, as fibroblasts age, they increase the expression of certain enzymes that destroy collagen and elastin.” left out, “The image is from an electrophoresis gel of DNA amplified by PCR from fibroblast mRNA. This gel was analyzed and” for “Fibroblast cell cultures were treated with either IE, DHE or EV for 72 hours at which time”, “density” for “amount”, “each band quantified by image analysis software.” for “collagen mRNA present in the cells was determined.”

[22] = tested on: HAS-2 (Hyaluronic acid synthase-2); assay: HAS-2 mRNA in fibroblasts by RT-PCR; format: cell-based, human; settings: 72 hours
Description: (§7) The presently claimed and disclosed inventive concept(s) further contemplates use of various DHE, IE and EV compositions and salts, esters, ethers, and derivatives thereof to mitigate the effects of aging on the skin. For all aging studies, normal human fibroblast cell cultures were used. These cells normally produce collagen, elastin and hyaluronic acid. As the skin ages, the fibroblasts in the dermis lose their ability to produce these three key components of skin, and the skin consequently loses elasticity, thickness and smooth texture. In addition, as fibroblasts age, they increase the expression of certain enzymes that destroy collagen and elastin. There are about 13 of these enzymes, collectively referred to as MMPs (matrix metalloproteinases). One of the principal MMPs, MMP-1, is responsible for collagen degradation. For experiments herein to determine the effects of DHE, IE and EV on collagen, elastin and hyaluronic acid, fibroblasts were treated with the compounds for 72 hours, mRNA was then isolated, and analyzed for abundance by RT-PCR (Reverse transcriptase-Polymerase Chain Reaction).
DHE, IE and EV, are also shown herein to stimulate mRNA for HAS-2. HAS-2 (Hyaluronic acid synthase-2) is the enzyme that manufactures hyaluronic acid (HA) in the skin. HA is a glycosaminoglycan important for maintaining moisture and suppleness in the skin. […] As the skin ages, the production of HA decreases and this causes the skin to sag and become thin.

TIMP-1 = TIMP-1 mRNA in fibroblasts by PCR; format: cell-based, human
Description: as §7
Fibroblasts in the skin not only produce enzymes (MMPs) that destroy the skin matrix but they also produce proteins (Tissue Inhibitors of Metalloproteinases, i.e., TIMPS) that inhibit these enzymes. There are several TIMPs, but one that is most important for inhibiting MMPs is TIMP-1. […] Shown in FIG. 11 is PCR data showing the up-regulation of TIMP-1 mRNA by these compounds.

[23] = tested on: human melanocyte cultures; assay: Pigment in human melanocyte cultures; format: cell-based; settings: treated for 9 days
tyrosinase [24] = assay: DOPA oxidase assay of cell extracts from treated human melanocytes; format: cell-based; settings: extracts of human melanocytes treated for 9 days
Method: Cell lysates were prepared from human melanocytes. The amount of tyrosinase in these cell lysates was determined by DOPA oxidase assay.
(§8) FIGS. 14-17 show the skin-lightening effects of topically-applied formulations of isoeugenol and its ester isoeugenol acetate (a.k.a. isoeugenyl acetate) in the treatment of hyperpigmented areas in the skin, wherein a reduction of melanin pigment in the skin is caused by the topical application of the formulations. In addition to blocking a post-tyrosinase step in melanin synthesis, IE and IE acetate can inhibit the expression of the tyrosinase protein in human melanocytes. […] If the cell extracts contain tyrosinase when an aliquot of extract is placed in a tube containing L-DOPA (a tyrosinase substrate) in buffer, the enzyme will convert the DOPA to melanin. The melanin will appear brownish-black in the assay tube. If IE or IE-acetate has inhibited tyrosinase synthesis in melanocytes, then the extracts from these cells will contain no enzyme and will not be able to produce melanin from DOPA in the assay tube. […] In this assay, cell extracts from human melanocytes either left untreated or treated with 200 micromolar of either IE or isoeugenol acetate for 9 days are run on SDS polyacrylamide electrophoresis gels to separate tyrosinase from other proteins. The tyrosinase in the gel is then blotted to a membrane and the tyrosinase detected by staining with a specific anti-tyrosinase antibody. The antibody-bound tyrosinase is then visualized by chemiluminescence.

tyrosinase [25] = assay: Western immunoblot of tyrosinase abundance in human melanocyte extracts; format: cell-based
Description: as §8

[26] = monocytes, LPS-induced (FIG. 4)

CCCc1ccc(O)c(OC)c1 [DHE, dihydroeugenol]
Percent Inhibition of PGE2 (PGE2 [1]): 77%
Percent Inhibition of IL-6 (IL-6 [2]): 30%
Percent Inhibition of IL-8 (IL-8 [3]): 45%
Percent Inhibition of TNF-α (TNF-α [4]; Keratinocytes (TPA), 100 uM): 12%
suppression of TPA-induced production of TNF-α (TNF-α [4]; keratinocytes (FIG. 3), 100 micromolar): approximately 50%
Percent Inhibition of PGE2 (PGE2 [5]; Keratinocytes (UV), 100 uM): 68%
inhibition of UVR-induced production of PGE-2 (PGE2 [5]; human keratinocytes, 50 uM): over 60%
Percent Inhibition of IL-6 (IL-6 [6]): 30%
Percent Inhibition of IL-8 (IL-8 [7]): 40%
Percent Inhibition of TNF-α (TNF-α [8]): 31%
Percent Inhibition of PGE-2 (PGE-2 [9]): 86%
Percent Inhibition of IL-6 (IL-6 [10]): 47%
Percent Inhibition of IL-8 (IL-8 [11]): 46%
Percent Inhibition of PGE-2 (PGE-2 [12]; Fibroblasts (UV), 100 uM): 67%
UVR induction of PGE-2 (PGE-2 [12]; human fibroblasts, 10 micromolar in culture media after irradiation, 24 hours): completely blocked
Percent Inhibition of IL-6 (IL-6 [13]): 49%
Percent Inhibition of IL-8 (IL-8 [14]): 11%
Percent Inhibition of MCP-1 (MCP-1 [15]; Monocytes (LPS), 100 uM): 60%
production of the chemokine MCP-1 (MCP-1 [15]; [26]): can inhibit the production
Percent Inhibition of IL-12 (IL-12 [16]): 66%
Percent Inhibition of TNF-α (TNF-α [17]; Monocytes (LPS), 100 uM): 78%
production of the cytokine TNF-α (TNF-α [17]; [26]): can inhibit the production
Percent Inhibition of IL-8 (IL-8 [18]; Monocytes (LPS), 100 uM): 70%
production of the chemokine IL-8 (IL-8 [18]; [26]): can inhibit the production
Percent Inhibition of MCP-1 (MCP-1 [19]): 46%
Percent Inhibition of IL-8 (IL-8 [20]): 72%
Percent Inhibition of IL-12 (IL-12 [21]): 98%
collagen production (collagen mRNA) (collagen 1 mRNA): stimulation
elastin levels (elastin mRNA) (elastin mRNA): increase
mRNA for HAS-2 [22]: stimulate
production of TIMP-1 (TIMP-1 mRNA) (TIMP-1): significantly stimulate

CC=Cc1ccc(OC(C)=O)c(OC)c1 [isoeugenol acetate]
pigment in human melanocyte cultures [23]: loss of pigment
tyrosinase activity / melanin made from L-DOPA by cell extracts (tyrosinase [24]; listed as IE-acetate): very little melanin was made
tyrosinase activity / melanin made from L-DOPA by cell extracts (tyrosinase [24]; listed as TH-213): absence of tyrosinase activity
tyrosinase abundance (relative densitometric units) (tyrosinase [25]; human melanocyte extracts, 200 μM, 9 days, control approximately 7.25 RDU): ~3.75 RDU
tyrosinase present (western immunoblot) (tyrosinase [25]; human melanocytes treated with 200 micromolar for 9 days): almost no detectable tyrosinase
